US20160002667A1, “PSEUDOMONAS EXOTOXINS FOR CANCER TREATMENT” (RUSH UNIVERSITY MEDICAL CENTER, priority 2013, published 2016)

How the values were obtained:
[1] = test system: 4T1 metastatic breast cancer cells; format: cell-based; settings: cisplatin 50 uM, PI fluorescence
Experimental: The cell death stain propidium iodide (PI) was added and the cells were observed by time-lapse videomicroscopy. Cytotoxicity was determined by measuring the PI fluorescence intensity at each time point using ImageJ (NIH).
Cells were observed by time-lapse videomicroscopy in the presence of the cell death dye propidium iodide.

[2] = test system: various cancer cell lines; assay: Propidium iodide time-lapse cytotoxicity / mean time to death in various cancer cell lines infected with P. aeruginosa expressing exotoxin; format: cell-based; settings: listed cancer cell lines, FIG. 4
Experimental: FIG. 4 is a table summarizing the effect of Pseudomonas exotoxins on various cancer cell lines. Pseudomonas exotoxins are able to kill a variety of cancer cell lines. Listed cell lines were infected with Pseudomonas aeruginosa expressing either ExoU, ExoS, or ExoT in the presence of the cell death dye propidium iodide and observed by time-lapse videomicroscopy. Based on PI staining analysis, the mean time to death was determined for each cell line. […] (ND: no death).
For example, ExoU kills 100% of highly metastatic breast cancer cell line 4T1 within 2-3 hours, as indicated by propidium iodide (PI) staining (red) in FIG. 1.

A375 cells [3] = format: cell-based; settings: versus GAP domain alone, GAP/ADPRT double mutant or GFP alone
Experimental: B16 and A375 cells were transfected with either GFP-fused ExoT, GAP and/or ADPRT domain mutants or GFP vector alone. Cytotoxicty was determined by positive propidium iodide staining.
We also discovered that ExoT is effective in killing the melanoma cell lines B16 and A375. B16 cells shown here were transfected with either a GFP expressing vector or ExoT directly fused to GFP. Cells were imaged in the presence of the cell death dye propidium iodide and observed by time-lapse videomicroscopy.

A375 cells [4] = assay: Mitotic events by time-lapse video microscopy after transfection; format: cell-based; settings: vector alone ~33%
Text: A375 cells were transfected with ExoT, the GAP or ADPRT domain mutants or GFP vector alone. Cells were observed by time-lapse video microscopy. The number of mitotic events per cells in each field of view was counted.

B16 cells = assay: Cell motility tracking by time-lapse video microscopy; format: cell-based; settings: tracked over a 10 h period, versus GFP transfected cells
Experimental: B16 cells were transfected with ExoT, the GAP or ADPRT domain mutants or GFP vector alone. Cells were observed by time-lapse video microscopy and tracked over a 10 h period using ImageJ (NIH). The mean track length during this time is shown. […] Importantly, ExoT could have an impact on reducing metastasis of cancer cells.

A375 melanoma cells = assay: Proliferation by phase time-lapse videomicroscopy after transfection; format: cell-based
HeLa cells = assay: Apoptosis and apoptotic compensatory proliferation signaling; format: cell-based
Text: It has long been postulated that dying cells induce compensatory proliferation in neighboring cells as a means to control homeostasis and maintain tissue integrity but the players and the mechanisms involved in the compensatory proliferation signaling have remained unknown.

[5] = test system: cancer cells that are resistant to its cytotoxicity; assay: G1 cell cycle arrest in cancer cells resistant to ExoT cytotoxicity; format: cell-based; settings: all cancer cells examined that are resistant to ExoT cytotoxicity
Text: (v) Exotoxin T is also a potent anti-proliferative agent. […] This feature can be quite useful in combination therapy.

[6] = synthetic substrate; cited from earlier work
Rho, Rac, and Cdc42 = settings: cited from earlier work

Substance: ExoS
- cytotoxicity compared with cisplatin [1]: more potent cytotoxicity than cisplatin
- speed of killing and potency (mean time to death by PI staining) [2]: fastest killing and greatest potentcy

Substance: ExoT
- cytotoxicity compared with cisplatin [1]: more potent cytotoxicity than cisplatin
- speed of killing and potency (mean time to death by PI staining) [2]: less potent and unable to kill some cell lines
- cytotoxicity (positive propidium iodide staining) (A375 cells [3]): significantly greater cytotoxicity
- mitotic cells (A375 cells [4]): complete block of mitotic cells
- mean track length (B16 cells): significantly shorter track lengths
- cell division (A375 melanoma cells): blocked cell division
- apoptosis (HeLa cells; HeLa): induces potent apoptosis
- formation of compensatory complexes and induction of proliferation in surrounding cells (HeLa cells; apoptotic HeLa cells): interferes with the ability of apoptotic HeLa cells to form compensatory complexes and induce proliferation in the surrounding cells
- cell cycle arrest [5]: complete G1cell cycle arrest
- ADPRT activity in vitro compared to ExoS [6]: 0.2%

Substance: R149K: ExoT with the invariant arginine of the GAP domain mutated to lysine
- GAP activity in vitro (Rho, Rac, and Cdc42): complete loss of GAP activity
